“Also recorded” adds a separate entry of the source. Where two headings read alike, the source gives them in different places. Where no end group is shown, it is not given here.
Legend:
Vpr52-96-ANT interaction = target: T1, Vpr52-96-ANT interaction (Rattus norvegicus, UniProt Q05962); assay type: binding; conditions: BA 250 μM, Atr 50 μM, peptides 5 μM
T1 construct: from tissue; host or cells: rat heart (ANT)
T1 sequence (Q05962 2-298 limits assumed): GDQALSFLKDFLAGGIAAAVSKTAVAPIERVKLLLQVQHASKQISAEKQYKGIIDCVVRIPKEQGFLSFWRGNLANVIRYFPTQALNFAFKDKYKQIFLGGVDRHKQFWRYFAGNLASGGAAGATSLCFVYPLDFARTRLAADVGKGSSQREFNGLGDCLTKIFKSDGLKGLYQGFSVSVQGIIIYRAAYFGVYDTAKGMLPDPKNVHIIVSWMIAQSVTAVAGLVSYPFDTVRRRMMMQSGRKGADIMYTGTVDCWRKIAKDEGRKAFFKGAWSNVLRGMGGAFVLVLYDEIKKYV

isolated mitochondria = experiment: Electron microscopy of isolated mitochondria (matrix swelling); assay type: biochemical; conditions: for inhibition of Vpr-induced matrix swelling: Vpr52-96 3 μM, 0.8 μM Bcl-2 or 2 μM PA10
Text: C. Ultrastructural effects of Vpr on isolated mitochondria.

purified mitochondria [1] = experiment: Binding of FITC-Vpr52-96 to purified mitochondria; conditions: pre-incubation 10 min
Experimental: Mitochondria were left unstained (insert in Co.) or exposed to the ΔΨm-insensitive mitochondrial dye MitoTracker® Green (75 nM), alone (MTG) or with 0.5 μM of FITC-Vpr52-96; green fluorescence), in combination with the ΔΨm-sensitive mitochondrial dye MitoTracker® Red (CMXRos; red Fluorescence) followed by cytofluorometric two-color analysis. Numbers indicate the percentage of mitochondria in each quadrant.
(§1) Mitochondria were pre-incubated 10 min. with the indicated inhibitors and the percentage of FITC-Vpr52-96-labelled mitochondria is determined as in A. C. […] Mitochondria were incubated with the indicated inhibitors, and then exposed for 30 min at RT with 5 μM biotinylated Vpr52-96. Mitochondria were lysed either after incubation with biotinylated Vpr52-96 (upper panel) or lysed before (lower panel) with Tris/HCl as described in materials and methods. Biotinylated Vpr52-96 complexed with its mitochondrial ligands was retained on avidin-agarose and subjected to immunoblot detection of ANT.

purified mitochondria [2] = experiment: ΔΨm dissipation in purified mitochondria (JC-1 flow cytometry); assay type: biochemical; conditions: for inhibition of Vpr-induced ΔΨm loss in purified mitochondria: 5 μM CsA, 50 μM BA, 0.8 μM Bcl-2, 2 μM PA10, Vpr52-96 3 μM, 5 min
Experimental: C. […] Purified mitochondria were treated with 1 μM Vpr52-96 subjected to cytofluorometric determination of the percentage of mitochondria having a low ΔΨm using the ΔΨm-sensitive fluorochrome JC-1. In parallel, cytochrome c was immunodetected in the supernatant of mitochondria.
Numbers indicate the percentage of JC-1^high and JC-1^low mitochondria among ˜10^4 events.
E. Quantitation of the frequency of JC-1^low mitochondria (X±SD, n=5) after incubation with different Vpr-derived peptides.

ANT-proteoliposomes = target: T2, ANT-proteoliposomes (Rattus norvegicus, UniProt Q05962); assay type: binding
T2 construct: ANT is purified from rat heart and reconstituted in liposomes; from tissue; host or cells: rat heart
T2 sequence (Q05962 1-298): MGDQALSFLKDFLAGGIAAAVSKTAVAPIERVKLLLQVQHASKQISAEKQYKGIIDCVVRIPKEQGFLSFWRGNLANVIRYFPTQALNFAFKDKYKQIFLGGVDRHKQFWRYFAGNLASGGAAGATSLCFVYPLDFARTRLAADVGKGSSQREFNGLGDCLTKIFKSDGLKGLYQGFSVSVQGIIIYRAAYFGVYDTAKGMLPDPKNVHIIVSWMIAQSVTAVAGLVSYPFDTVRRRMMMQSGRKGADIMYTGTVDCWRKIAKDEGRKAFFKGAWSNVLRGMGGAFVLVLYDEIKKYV
Experimental: 1. Purification of ANT. ANT is purified from rat heart and reconstituted in liposomes according to the protocol described by Brenner et al., Oncogene, 2000.
2. Reconstitution of ANT in liposomes. ANT (0.03 mg/ml) is incorporated in liposomes composed of phosphatidylcholine and cardiolipine (PC:CL; 45:1; W: w; and 300 ng ANT per mg of lipids) in the presence of 0.3% n-octyl-β-D-pyranoside for 2 min. at room temperature. […] Then, the detergent is eliminated by dialyzing, overnight, the liposomes against the buffer 10 mM HEPES, 125 mM sucrose, pH7.4 at 4° C. (e.g.: about 11 of buffer per 1 ml liposomes).

ANT [3] = target: T3, ANT (Rattus norvegicus, UniProt Q05962); assay type: binding; conditions: X±SD, n=5; read-out: calculated KD of the interaction of ANT with Vpr52-96
T3 construct: from tissue; host or cells: rat heart
Text: A. Plasma surface resonance sensorgrams of the interaction of ANT with Vpr52-96, Vpr52-96[R73A,80A] or an irrelevant control (Co).
B. Langmuir isotherm determined at different concentrations of ANT on sensorgrams corrected by subtraction of the blank (sensorgrams obtained with Vpr52-96[R73A,80A]).

purified mitochondria [4] = experiment: Respirometry of purified mitochondria (respiratory control); assay type: biochemical; conditions: 10 min after 1 μM peptide; control mitochondria 5.3
Experimental: A. Oxygen consumption curves after addition of the indicated agents. Trace a: control mitochondria (no pretreatment). Trace b: mitochondria pretreated for 10 min with 1 μM Vpr52-96. Numbers along the traces are nmol of 02 consumed min^−1 mg^−1 protein.
B. Respiratory control (RC) values calculated by dividing oxygen consumption in the presence of CCCP by that measured with oligomycin (determined as in A), 10 min after addition of 1 μM of Vpr-derived peptides (mean values of 3 determinations).

ANT [5] = target: T3, ANT; conditions: surface plasmon resonance, Jacotot et al. 2000; cited from earlier work
ANT [6] = target: T3, ANT; assay type: biochemical
Experimental: (§2) FIG. 3 presents electrophysiological properties of Vpr52-96 and ANT in planar lipid bilayers.
(§3) Single channel recordings were performed using the “Tip-Dip” technique. The recordings shown are representative for at least three independent determinations.
(§4) B. Statistical analysis of conductances obtained in A. Results were expressed as current distributions at different voltages. Conductances (γ; in picosiemens, pS) are calculated by division of current by voltage.

Vpr52-96 = Vpr52-96 (Human immunodeficiency virus type 1 group M subtype B, UniProt P69726)
COS cells = experiment: Vpr52-96-induced ΔΨm dissipation in intact microinjected cells; assay type: cell-based; conditions: Bcl-2 10 μM, PA10 2 μM microinjected
Text: A. Vpr52-96-induced ΔΨm dissipation induced in intact cells.

ANT [7] = conditions: 5 μM biotinylated Vpr52-96, 30 min
Experimental: as §1

ANT [8] = target: T4, ANT (Rattus norvegicus, UniProt Q05962); assay type: biochemical; remark: listed apart in the source
T4 construct: from tissue; host or cells: rat heart
T4 sequence (Q05962 whole entry, looked up): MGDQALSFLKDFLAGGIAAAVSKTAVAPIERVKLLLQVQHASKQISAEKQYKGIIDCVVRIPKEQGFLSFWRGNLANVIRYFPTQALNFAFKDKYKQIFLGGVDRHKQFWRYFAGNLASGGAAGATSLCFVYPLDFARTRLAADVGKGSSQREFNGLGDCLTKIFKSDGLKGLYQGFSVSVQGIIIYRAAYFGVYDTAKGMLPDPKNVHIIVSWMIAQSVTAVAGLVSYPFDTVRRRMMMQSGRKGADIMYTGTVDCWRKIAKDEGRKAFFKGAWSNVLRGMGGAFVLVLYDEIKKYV
Experimental: as §2, §3, §4

[9] = target: biotin-Vpr52-96 (biotinylated C-terminal moiety of HIV-1 Vpr) (HIV-1), P12520; experiment: surface plasmon resonance, Langmuir isotherm, peptide on biotinylated Vpr52-96
[10] = target: T5, adenine nucleotide translocator (ANT), native purified, detergent-solubilized or reconstituted in liposomes / planar lipid bilayers (rat), Q05962; experiment: cell-based or functional assay
T5 chain: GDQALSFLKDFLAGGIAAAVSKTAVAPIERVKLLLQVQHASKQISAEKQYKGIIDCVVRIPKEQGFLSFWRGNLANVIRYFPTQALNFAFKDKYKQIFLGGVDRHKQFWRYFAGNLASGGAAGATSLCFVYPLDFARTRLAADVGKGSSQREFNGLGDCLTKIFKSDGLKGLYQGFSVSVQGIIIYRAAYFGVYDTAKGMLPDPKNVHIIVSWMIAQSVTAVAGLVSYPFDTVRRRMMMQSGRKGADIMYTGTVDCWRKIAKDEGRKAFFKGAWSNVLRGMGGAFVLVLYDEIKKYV

[11] = target: T5, adenine nucleotide translocator (ANT), …; experiment: flow cytometry of liposomes; FITC-Vpr52-96 on ANT-proteoliposomes

C=C1[C@@H]2CC[C@H]3[C@]4(C)C[C@H](O[C@@H]5O[C@H](CO)[C@@H](OS(=O)(=O)O)[C@H](OS(=O)(=O)O)[C@H]5OC(=O)CC(C)C)C[C@@H](C(=O)O)[C@H]4CC[C@]3(C2)[C@H]1O [Atr, atractyloside]
modulation of the Vpr52-96-ANT interaction by ANT ligands and peptides (Vpr52-96-ANT interaction): favors Vpr binding

CO[C@H](C/C=C\C=C\CC/C=C/C[C@H](C)/C=C/C(=C\C(=O)O)CC(=O)O)/C(C)=C\C=C(/C)C(=O)O [BA, bongkrekic acid, reference compound]
inhibition of Vpr-induced matrix swelling (isolated mitochondria): inhibited | effect on binding of Vpr52-96 to purified mitochondria (purified mitochondria [1]): partially reduced | inhibition of Vpr-induced ΔΨm loss in purified mitochondria (purified mitochondria [2]): inhibited | modulation of the Vpr52-96-ANT interaction by ANT ligands and peptides (Vpr52-96-ANT interaction): reduces Vpr binding | effect on Vpr52-96 binding to membrane-associated ANT (ANT proteoliposomes) (ANT-proteoliposomes; BA 50 μM, Bcl-2 800 nM): inhibited

CC[C@H](C)[C@H](NC(=O)[C@H](C)NC(=O)[C@H](CCC(=O)O)NC(=O)[C@@H](NC(=O)CNC(=O)[C@H](C)NC(=O)[C@H](Cc1c[nH]c2ccccc12)NC(=O)[C@@H](NC(=O)[C@@H](N)CC(=O)O)[C@@H](C)O)C(C)C)C(=O)N[C@H](C(=O)N[C@@H](CCCNC(=N)N)C(=O)N[C@H](C(=O)N[C@@H](CC(C)C)C(=O)N[C@@H](CCC(N)=O)C(=O)N[C@@H](CCC(N)=O)C(=O)N[C@@H](CC(C)C)C(=O)N[C@@H](CC(C)C)C(=O)N[C@@H](Cc1ccccc1)C(=O)N[C@H](C(=O)N[C@@H](Cc1c[nH]cn1)C(=O)N[C@@H](Cc1ccccc1)C(=O)N[C@@H](CCCNC(=N)N)C(=O)N[C@H](C(=O)NCC(=O)N[C@@H](CS)C(=O)N[C@@H](CCCNC(=N)N)C(=O)N[C@@H](Cc1c[nH]cn1)C(=O)N[C@@H](CO)C(=O)N[C@@H](CCCNC(=N)N)C(=O)N[C@H](C(=O)NCC(=O)N[C@H](C(=O)N[C@H](C(=O)N[C@@H](CCCNC(=N)N)C(=O)N[C@@H](CCC(N)=O)C(=O)N[C@@H](CCCNC(=N)N)C(=O)N[C@@H](CCCNC(=N)N)C(=O)N[C@@H](C)C(=O)N[C@@H](CCCNC(=N)N)C(=O)N[C@@H](CC(N)=O)C(=O)NCC(=O)N[C@@H](C)C(=O)N[C@@H](CO)C(=O)N[C@@H](CCCNC(=N)N)C(=O)N[C@@H](CO)C(=O)O)[C@@H](C)O)C(C)C)[C@@H](C)CC)[C@@H](C)CC)[C@@H](C)CC)[C@@H](C)CC)[C@@H](C)CC [Vpr52-96]
ultrastructural effect on mitochondria (isolated mitochondria; 3 μM, 5 or 15 min): matrix swelling before OM rupture became apparent | Kd (ANT [3]): 9.7 ± 6.4 nM | respiratory control (RC) value (purified mitochondria [4]): 1.1 | timing of ΔΨm loss relative to cytochrome c release (purified mitochondria [2]; Vpr52-96 1 μM): well before cytochrome c release can be detected | affinity of Vpr C-terminus for purified ANT (ANT [5]): high affinity in the nanomolar range | Vpr52-96 binding to ANT liposomes compared to protein-free liposomes (ANT-proteoliposomes): greatly facilitated | conductance of Vpr52-96-ANT channels without any further addition (ANT [6]; as printed in Example 4): 190±2 | channel formation in planar lipid bilayers without ANT (ANT [6]; low doses (<1 nM), no ANT): incapable of forming channels

Bcl-2: recombinant human Bcl-2 protein
inhibition of Vpr-induced matrix swelling (isolated mitochondria): inhibited; also recorded: strongly reduced | effect on binding of Vpr52-96 to purified mitochondria (purified mitochondria [1]): failed to impair the binding | binding of Bcl-2 to Vpr52-96 (Vpr52-96): did not bind Vpr52-96 | prevention of Vpr effect on intact cells by microinjection (COS cells): prevented | inhibition of Vpr-induced ΔΨm loss in purified mitochondria (purified mitochondria [2]): inhibited; also recorded: strongly reduced | effect on affinity purification of ANT with biotinylated Vpr52-96, intact mitochondria (ANT [7]): reduced the Vpr52-96-mediated recovery of ANT | effect on Vpr52-96 binding to membrane-associated ANT (ANT proteoliposomes) (ANT-proteoliposomes): reduced Vpr52-96 binding | effect on formation of Vpr52-96 induced channels in ANT-containing lipid bilayers (ANT [8]): abolished the formation of Vpr52-96 induced channels

DKRTQFWRYFAGN (modifications not checked) [ANT-2-derived peptide ANT104-116]
Kd [9]: 35000 nM

DTWAGVEAIIRILQQLLFIHFRIGCRHSRIGVTRQRRARNGASRS (modifications not checked) [Vpr52-96, P12520 52-96]
conductance of Vpr52-96-ANT channels in the presence of Bax [10]: 245 | conductance of channels in planar lipid bilayers [10]: 190 pS

DTWAGVEAIIRILQQLLFIHFRIGCRHSRIGVTRQRRARNGASRS (not fully specified) [FITC-labeled Vpr52-96, P12520 52-96]
EC50 (read off the curve) [11]: 900 nM
